# Results as given in patent US11198710B2, “Transgenic plant having herbicide resistance” (priority 2016, dated 2021).
# System: TaQ8GTC0 protein
# Test: Glutathione conjugation activity of the TaQ8GTC0 protein to VLCFAE-inhibiting herbicides (HPLC)
# Assay type: biochemical, wheat (Triticum aestivum)
# Method: All the VLCFAE-inhibiting herbicides used in this example were added to the reaction mixture as acetone solutions. Conjugation reactions to the VLCFAE-inhibiting herbicides were performed in a reaction mixture (total amount: 200 μl) containing 50 μl of 100 mM potassium phosphate buffer (pH 6.8), 10 μl of 1 mM VLCFAE-inhibiting herbicide, 20 μl of 10 mM reduced glutathione (pH 7.0), 6 μl of the TaQ8GTC0 protein (378 ng in total, PBS buffer solution) and 114 μl of PBS buffer, the reaction was conducted at 30° C. for 15 minutes, the reaction product was filtered through a […], and 50 μl of the filtered solution was injected into HPLC. HPLC analysis conditions were as described below.
# Apparatus: Agilent 1100 series
# Column: CAPCELL PAK C18 AQ 4.6 mm (i.d.)×250 mm (SHISEIDO)
# Mobile phase: acetonitrile/distilled water=5/95 (hold for 5 min)→(4 min)→40/60 (hold for 4 min)→(4 min)→90/10 (hold for 8 min)→(1 min)→5/95 (hold for 4 min) (each solvent containing 0.5% acetic acid)
# When the activity of glutathione conjugation to VLCFAE-inhibiting herbicides was analyzed, the amount of glutathione conjugates (GS conjugates) produced was determined based on the amount of VLCFAE-inhibiting herbicides decreased in the reaction solution.
# In Example 1, the conjugation activity to cafenstrole was determined via quantification of the compound released by the glutathione conjugation of this herbicide. In addition, peaks of GS conjugate of other herbicides (i.e., metolachlor, alachlor, flufenacet, mefenacet, phentolazamide, indanofan, anilofos, and piperophos) were unknown. When analyzing the glutathione conjugation activities to these herbicides, accordingly, glutathione conjugation reactions were performed to produce GS conjugate in the modified conditions (i.e., more amount of enzyme was added or the conjugation reaction was conducted for longer time) in the beginning to produce glutathione conjugates (GS conjugates), and the peaks were identified with LC/MS.
smiles,measurement,setting,value
"Cn1nc(C(F)(F)F)c(CS(=O)(=O)C2=NOC(C)(C)C2)c1OC(F)F [Pyroxasulfone, 3-[5-(difluoromethoxy)-1-methyl-3-(trifluoromethyl)pyrazol-4-ylmethylsulfonyl]-4,5-dihydro-5,5-dimethyl-1,2-oxazole]",Enzyme activity (glutathione conjugation),"378 ng TaQ8GTC0 protein, 10 μl of 1 mM herbicide in 200 μl, 30° C., 15 minutes, mean ± standard deviation",11.7 ± 3.7 μmol/mg protein/15 min
same,GS conjugate of pyroxasulfone (M-15) produced,out of 10 nmol pyroxasulfone added to the reaction mixture,4.81 nmol
